Reference: patent US20230139328A1, “DOSAGE FORMS FOR IMPROVING ORGAN TRANSPLANTATION, GRAFT VERSUS HOST DISEASE AND STEM CELLS TRANSPLANTS” (Aphios Corporation, priority 2020, published 2023)
“Also recorded” adds a separate entry of the source.

How the values were obtained:
[1] = system: neutrophil migration across HUVEC; assay: Neutrophil transendothelial migration (TEM) restoration studies with PKC inhibitors in HUVEC; format: cell-based, human; conditions: 100 nM Bryostatin-1, 100 nM LTB4, 3 h
Procedure: HUVEC were pretreated with G0-6983, a PKC inhibitor with dose dependent specificities for classical vs. novel PKC isoforms for 30 minutes prior to addition of Bryostatin-1 (100 nM) to block neutrophil migration. […] Neutrophil migration towards 100 nM LTB4 was initiated by adding LTB4 to the lower well.
Neutrophil Transendothelial Migration (TEM) Restoration Studies: HUVECs were pretreated with Go-6983 (1, 10, 100 nM), or Go-6976 (1, 10,100 nM) for 30 minutes, then spiked with 100 nM Bryostatin-1 for 1 hour. HUVECs previously nucleofected with PKC-δ, -ε, or control siRNA were just treated in Bryostatin-1 for 1 hour. HUVECs were washed three times and placed in a new plate containing either 500 IL 100 nM LTB4, or HBSS alone for control. Neutrophils were allowed to migrate for 3 h at 37° C. Migration was stopped by removing the inserts and migration was measured using the MPO assay.
Myeloperoxidase Assay: Neutrophil migration was measured using myeloperoxidase (MPO) analysis. Cell culture inserts were first removed, and plates were spun at 1,500 RPM for 5 min. The supernatant was removed, and MPO activity was measured using TMB/peroxide as chromogen. The reaction was stopped with sulfuric acid and absorbance was read at 450 nm using a microplate reader. All experiments were performed n=6. Data was expressed as “% neutrophil migration”, which allowed cumulative statistical analysis to be done and account for unpreventable batch-to-batch variations.

transplanted kidney = assay: Porcine kidney auto-transplantation model (20 h cold storage, reperfusion); format: in vivo, German Landrace pigs; conditions: pig
Procedure: We used the porcine kidney auto-transplantation model with the modified PET formulation of Bryostatin-1 in thirty-two female German Landrace pigs weighing 20 to 40 kg. Briefly, animals had surgery for graft retrieval followed by a standard graft cold storage time (CST) of 20 h. During CST, kidneys were preserved with histidine-tryptophan-ketoglutarate (HTK)-solution either supplemented with 100 nM Bryostatin-1 or an equivalent volume of placebo (PET formulation). Donor animals then had surgery again for renal auto-transplantation and the graft was transplanted orthotopically. Thus, the contralateral kidney was removed to measure specifically function of the transplanted kidney. Time of reperfusion was 8 h and sample collection included cortical renal biopsies, tissue block samples at the end of the study and blood as well as urine analyses.

[2] = HTK-solution with 100 nM Bryostatin-1 during 20 h cold storage vs placebo

Compound: CCC/C=C/C=C/C(=O)O[C@H]1/C(=C/C(=O)OC)C[C@H]2C[C@H]([C@@H](C)O)OC(=O)C[C@H](O)C[C@@H]3C[C@H](OC(C)=O)C(C)(C)[C@](O)(C[C@@H]4C/C(=C/C(=O)OC)C[C@H](/C=C/C(C)(C)[C@]1(O)O2)O4)O3 [Bryostatin-1]
- effect on LTB4 induced neutrophil migration, HUVEC [1]: reversed; also recorded: significantly suppressed LTB4 induced migration
- serum/plasma and urinary inflammatory biomarkers (transplanted kidney; 100 nM Bryostatin-1 in HTK-solution): not altered
- kidney histology scores at 6 hours (transplanted kidney; 100 nM Bryostatin-1 in HTK-solution, 6 hours): significantly improved
- kidney ultrastructural damage scores (transplanted kidney; [2]): significantly reduced
- neutrophils entering the re-perfused kidney (transplanted kidney; [2]): significantly prevented
